Our source for the IC50, inhibition and remaining activity values is patent US20240425441A9, “MODULATORS OF LIPOXYGENASE AND CYCLOOXYGENASE ENZYME ACTIVITY” (Université de Moncton, priority 2016, published 2024).

Structures are written as SMILES. Read-outs that look alike come from different tables or passages of the source. Where only a bound is given, the exact number is not on record here.

What all share (type): cell-based
Assay [1] addresses T1, 5-lipoxygenase (Homo sapiens (Human), UniProt P09917). The experiment in a line: Stimulation of isolated PMN (neutrophils) for 5-LO products. The note with it: ranges indicate confidence interval, read-out: PMN dose-response. The procedure:
Briefly, blood was centrifuged at 300×g for 5 min at room temperature, plasma was collected and erythrocytes were removed after dextran sedimentation.
Isolated PMN (1×10^7 cells/mL) resuspended in Hank's balanced salt solution (HBSS, Lonza, Walkerville, MD) containing 1.6 mM CaCl2) were pre-incubated with test compounds for 5 min at 37° C. in the presence of 1 U/mL of adenosine deaminase. […] Reactions were stopped with the addition of 0.5 volume of cold MeOH:CH3CN (1:1) and 50 ng of PGB2 as internal standard, and samples were stored at −20° C. overnight for protein denaturation. […] Total 5-LO products quantified represents the sum of LTB4, its trans isomers, 20-COOH— and 20-OH-LTB4 and 5-hydroxyeicosatetraenoic acid.

The target in assay [2] is T1, 5-lipoxygenase. The experiment in a line: Stimulation of HEK293 cells stably transfected with 5-LO and FLAP; total 5-LO products by HPLC. The note with it: HEK293 cells expressing 5-LO and FLAP; ranges indicate confidence interval; read-out: HEK Dose-response.
Protocol: HEK293 cells were detached by trypsinization and re-suspended in Hank's balanced salt solution containing 1.6 mM CaCl2). Cells (1×10^6 cells/mL) were preincubated at 37° C. with the test compounds or their diluent for 5 minutes and were then stimulated at 37° C. with 10 μM ionophore A23187 and 10 μM AA for 15 min. Stimulations were stopped by adding 0.5 volumes of a methanol:acetonitrile (1:1) solution containing 100 ng/mL each of PGB2 and 19-OH-PGB2 as internal standards, and samples were then kept at −20° C. overnight for protein denaturation. […] Total 5-LO products quantified represents the sum of LTB4, its trans isomers and 5-hydroxyeicosatetraenoic acid.
In assay [3] the target is T1, 5-lipoxygenase. The assay is described as follows: Ex vivo whole blood stimulation with zymosan; total 5-LO products. The note with it: zymosan-stimulated whole blood; read-out: Whole blood dose-response. The procedure: Each compound or its diluent was added to heparinized blood obtained from healthy donors (1 mL) at the indicated concentration and incubated for 10 min at 37° C. in a water bath. Following incubations, 125 μL of 40 mg/mL opsonised zymosan was added to each sample, gently vortexed and incubated for 30 min at 37° C. Samples were then centrifuged for 10 min at 960×g at 4° C. Plasma, 350 μL, was removed and added to 1.2 ml of methanol:acetonitrile (1:1) and 50 ng of PGB2 as internal standard. Samples were left overnight at −20° C. for protein denaturation. […] Total 5-LO products quantified represents the sum of LTB4, its trans isomers, 20-COOH— and 20-OH-LTB4 and 5-hydroxyeicosatetraenoic acid.

In another assay the target is COX-1 (Homo sapiens (Human), UniProt P23219). The experiment in a line: COX-1 inhibitory activity in human platelets. The following applies: read-out: Percent inhibition at 1 μM.
Sequence of COX-1 (P23219 24-599): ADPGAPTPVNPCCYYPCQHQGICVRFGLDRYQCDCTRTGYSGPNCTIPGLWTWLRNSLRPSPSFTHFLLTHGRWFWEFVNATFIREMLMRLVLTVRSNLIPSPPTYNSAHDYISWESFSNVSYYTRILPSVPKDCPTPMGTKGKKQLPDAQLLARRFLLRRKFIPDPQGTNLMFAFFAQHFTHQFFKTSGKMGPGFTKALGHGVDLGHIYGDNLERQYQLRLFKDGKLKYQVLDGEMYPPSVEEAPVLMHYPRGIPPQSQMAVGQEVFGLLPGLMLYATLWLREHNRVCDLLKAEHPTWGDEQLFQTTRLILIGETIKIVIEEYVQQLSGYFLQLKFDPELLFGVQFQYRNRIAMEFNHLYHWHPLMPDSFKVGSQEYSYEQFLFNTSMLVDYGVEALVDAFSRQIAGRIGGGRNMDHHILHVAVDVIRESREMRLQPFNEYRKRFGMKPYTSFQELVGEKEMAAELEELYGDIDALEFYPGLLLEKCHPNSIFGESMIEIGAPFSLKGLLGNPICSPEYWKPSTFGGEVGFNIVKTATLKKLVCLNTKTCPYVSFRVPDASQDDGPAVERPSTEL
Another assay concerns the target COX-2 (Homo sapiens (Human), UniProt P35354). The assay is described as follows: COX-2 activity, products from LPS-primed human neutrophils. The following applies: 100% no inhibition, 0% complete inhibition.
[4] abbreviates: read-out: % of control COX-2 activity, n = 1.
The mark [5] stands for this setting: read-out: % of control COX-2 activity, n = 2.

Sequence of COX-2 (P35354 18-604): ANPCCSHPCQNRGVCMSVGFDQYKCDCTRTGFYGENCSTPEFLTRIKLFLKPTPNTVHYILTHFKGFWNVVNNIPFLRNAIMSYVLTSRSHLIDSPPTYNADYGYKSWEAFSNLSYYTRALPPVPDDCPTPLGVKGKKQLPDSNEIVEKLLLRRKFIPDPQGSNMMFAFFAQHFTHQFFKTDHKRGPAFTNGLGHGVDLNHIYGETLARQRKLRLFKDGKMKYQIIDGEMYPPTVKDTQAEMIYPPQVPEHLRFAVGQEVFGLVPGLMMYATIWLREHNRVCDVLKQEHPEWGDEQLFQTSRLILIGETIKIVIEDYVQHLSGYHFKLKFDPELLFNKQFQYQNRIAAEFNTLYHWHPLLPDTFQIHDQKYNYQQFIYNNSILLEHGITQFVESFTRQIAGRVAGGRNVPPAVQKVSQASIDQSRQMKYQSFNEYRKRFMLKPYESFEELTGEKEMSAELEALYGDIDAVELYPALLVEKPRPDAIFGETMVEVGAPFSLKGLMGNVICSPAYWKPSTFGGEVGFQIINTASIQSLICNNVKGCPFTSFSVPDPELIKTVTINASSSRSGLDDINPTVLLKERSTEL
T1 sequence (P09917 whole entry): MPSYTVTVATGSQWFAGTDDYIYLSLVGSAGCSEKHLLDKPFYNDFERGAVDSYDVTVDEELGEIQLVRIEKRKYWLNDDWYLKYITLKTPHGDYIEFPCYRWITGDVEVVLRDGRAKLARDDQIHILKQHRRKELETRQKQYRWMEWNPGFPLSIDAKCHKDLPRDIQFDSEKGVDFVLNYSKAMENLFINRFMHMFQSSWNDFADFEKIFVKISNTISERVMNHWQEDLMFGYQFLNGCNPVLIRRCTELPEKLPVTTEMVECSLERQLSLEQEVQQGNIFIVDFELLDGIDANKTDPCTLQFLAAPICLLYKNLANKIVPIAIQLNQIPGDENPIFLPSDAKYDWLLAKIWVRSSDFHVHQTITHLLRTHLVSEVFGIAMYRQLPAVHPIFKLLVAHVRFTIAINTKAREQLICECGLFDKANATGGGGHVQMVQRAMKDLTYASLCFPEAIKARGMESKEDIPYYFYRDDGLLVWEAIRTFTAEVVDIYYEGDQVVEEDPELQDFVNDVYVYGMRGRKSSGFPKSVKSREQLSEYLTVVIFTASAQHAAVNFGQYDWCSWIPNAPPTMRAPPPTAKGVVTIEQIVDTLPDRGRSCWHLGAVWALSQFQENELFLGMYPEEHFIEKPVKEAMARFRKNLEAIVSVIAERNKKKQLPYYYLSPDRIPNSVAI

For the molecule `O=C(C=Cc1ccc(O)c(O)c1)OCC=Cc1ccccc1` (stereo in doubt) [Compound 4, (E)-(Z)-3-phenylallyl 3-(3,4-dihydroxyphenyl)acrylate], at 5-lipoxygenase [1], the IC50 was determined as 760 nM.

For the molecule `O=C(/C=C/c1ccc(O)c(O)c1)OCCc1ccccc1` [CAPE, caffeic acid phenethyl ester, reference compound], the IC50 at 5-lipoxygenase [2] is 650 to 1200 nM; on 5-lipoxygenase [1] it was 840 to 1100 nM; on 5-lipoxygenase [3], 3400 nM.

`O=C(CCc1ccc(O)c(O)c1)OCCCCc1ccccc1` [Compound 1, 4-phenylbutyl 3-(3,4-dihydroxyphenyl)propanoate]: the IC50 on 5-lipoxygenase [1] came out at 870 nM.

As for `O=C(CCc1ccc(O)c(O)c1)OCCCCCc1ccccc1` [Compound 2, 5-phenylpentyl 3-(3,4-dihydroxyphenyl)propanoate], the IC50 amounted to 860 nM on 5-lipoxygenase [1] and 2800 nM on 5-lipoxygenase [3].

With `O=C(CCc1ccc(O)c(O)c1)OCCCCCCc1ccccc1` [Compound 3, 6-phenylhexyl 3-(3,4-dihydroxyphenyl)propanoate], the IC50 on 5-lipoxygenase [1] amounted to 510 nM; on 5-lipoxygenase [3], 2400 nM.

On to `COc1cc(/C=C/C(=O)OCCCc2ccccc2)cc(OC)c1O` [Compound 6, (E)-3-phenylpropyl 3-(4-hydroxy-3,5-dimethoxyphenyl)acrylate], for which the IC50 on 5-lipoxygenase [1] was 350 nM.

Regarding `C=C(C)CCOC(=O)/C=C/c1ccc(O)c(O)c1` [Compound 17, (E)-3-methylbut-3-en-1-yl 3-(3,4-dihydroxyphenyl)acrylate], on 5-lipoxygenase [1], the IC50 amounted to 860 nM.

As to `O=C(/C=C/c1ccc(O)c(O)c1)OCCc1ccc(F)cc1` [Compound 20, (E)-4-fluorophenethyl 3-(3,4-dihydroxyphenyl)acrylate], on COX-1, the inhibition – broadly, the percentage by which the read-out fell short of the control – at 1 µM stood at 37.2%.

For the molecule `Cc1ccc(CCOC(=O)/C=C/c2ccc(O)c(O)c2)cc1` [Compound 21, (E)-4-methylphenethyl 3-(3,4-dihydroxyphenyl)acrylate], the inhibition at 1 µM on COX-1 came to 44.6%.

`COc1ccc(CCOC(=O)/C=C/c2ccc(O)c(O)c2)cc1` [Compound 22, (E)-4-methoxyphenethyl 3-(3,4-dihydroxyphenyl)acrylate]: the inhibition at 1 µM at COX-1 turned out to be 39.6%.

Regarding `O=C(/C=C/c1ccc(O)c(O)c1)OCCCc1ccccc1` [Compound 25, (E)-3-phenylpropyl 3-(3,4-dihydroxyphenyl)acrylate], the values for the remaining activity at 1 µM on COX-2 (setting [4]), at COX-2 (setting [5]) and on COX-2 (read-out: Avg % of control) were 34.9%, 81.3% and 58.1%, respectively. Further, the IC50 at 5-lipoxygenase [1] fell in the range of 590 to 820 nM.

Turning to `O=C(/C=C/c1ccc(O)c(O)c1)OCC(c1ccccc1)c1ccccc1` [Compound 27, (E)-2,2-diphenylethyl 3-(3,4-dihydroxyphenyl)acrylate], the IC50 at 5-lipoxygenase [1] was found to be 720 nM.

`O=C(/C=C/c1ccc(O)c(O)c1)OC/C=C/c1ccccc1` [Compound 31, (E)-cinnamyl 3-(3,4-dihydroxyphenyl)acrylate]: the IC50 at 5-lipoxygenase [1] amounted to 1030 nM.

As to `O=C(CCc1ccc(O)c(O)c1)OCCc1ccccc1` [Compound 32, phenethyl 3-(3,4-dihydroxyphenyl)propanoate], the remaining activity at 1 µM on COX-2 (setting [4]) was found to be 34.3%; on COX-2 (setting [5]), 69%; at COX-2 (read-out: Avg % of control), 51.6%. For the same molecule, the inhibition at 1 µM on COX-1 is 42%. The IC50 on 5-lipoxygenase [1] worked out at 1000 nM.

On to `O=C(CCc1ccc(O)c(O)c1)OCCCc1ccccc1` [Compound 33, 3-phenylpropyl 3-(3,4-dihydroxyphenyl)propanoate], for which the remaining activity at 1 µM is 7.6% at COX-2 (setting [4]), 45.3% at COX-2 (setting [5]) and 26.4% at COX-2 (read-out: Avg % of control). The IC50 on 5-lipoxygenase [1] was 890 nM.

As for `O=C(Cc1ccc(O)c(O)c1)OCCc1ccccc1` [Compound 34, phenethyl 2-(3,4-dihydroxyphenyl)acetate], the inhibition at 1 µM on COX-1 is less than 20%.

In the case of `O=C(Cc1ccc(O)c(O)c1)OCCCc1ccccc1` [Compound 35, 3-phenylpropyl 2-(3,4-dihydroxyphenyl)acetate], on 5-lipoxygenase [1], the IC50 was determined as 790 nM.

Regarding `O=C(OCCc1ccccc1)c1ccc(O)c(O)c1` [Compound 36, phenethyl 3,4-dihydroxybenzoate], the inhibition at 1 µM at COX-1 was less than 20%.

On to `O=C(OCCc1ccccc1)c1cc(O)c(O)c(O)c1` [Compound 38, phenethyl 3,4,5-trihydroxybenzoate], for which the IC50 on 5-lipoxygenase [1] was 790 nM; at 5-lipoxygenase [3], 2800 nM.

With `O=C(/C=C/c1ccc(O)c(O)c1)OCCCCc1ccccc1` [Compound 39, (E)-4-phenylbutyl 3-(3,4-dihydroxyphenyl)acrylate], the remaining activity at 1 µM turned out to be 62.9% on COX-2 (setting [4]), 90.2% on COX-2 (setting [5]) and 76.6% at COX-2 (read-out: Avg % of control). For the same molecule, the IC50 on 5-lipoxygenase [1] is 600 nM.

As for `O=C(/C=C/c1ccc(O)c(O)c1)OCCCCCc1ccccc1` [Compound 40, (E)-5-phenylpentyl 3-(3,4-dihydroxyphenyl)acrylate], the remaining activity at 1 µM on COX-2 (setting [4]) came out at 37.8%; on COX-2 (setting [5]) it was 86.4%; on COX-2 (read-out: Avg % of control), 62.1%. Also, the IC50 at 5-lipoxygenase [1] is 530 nM.

On to `O=C(/C=C/c1ccc(O)c(O)c1)OCCCCCCc1ccccc1` [Compound 41, (E)-6-phenylhexyl 3-(3,4-dihydroxyphenyl)acrylate], for which the IC50 on 5-lipoxygenase [1] turned out to be 840 nM.

Consider `COc1cc(/C=C/C(=O)OCCc2ccccc2)cc(OC)c1O` [Compound 45, (E)-phenethyl 3-(4-hydroxy-3,5-dimethoxyphenyl)acrylate], for which the IC50 at 5-lipoxygenase [1] was 300 nM.

As for `O=C(/C=C/c1ccc(O)c(O)c1)NCCCc1ccccc1` [Compound 55, (E)-3-(3,4-dihydroxyphenyl)-N-(3-phenylpropyl)acrylamide], the remaining activity at 1 µM at COX-2 (setting [4]) turned out to be 103%; at COX-2 (setting [5]), 101%; at COX-2 (read-out: Avg % of control), 102%. Further, the IC50 at 5-lipoxygenase [1] came out at 1600 nM.

For the molecule `O=C(/C=C/c1ccc(O)c(O)c1)NCCCCc1ccccc1` [Compound 56, (E)-3-(3,4-dihydroxyphenyl)-N-(4-phenylbutyl)acrylamide], the IC50 at 5-lipoxygenase [1] turned out to be 920 nM.

Regarding `O=C(/C=C/c1ccc(O)c(O)c1)CCc1ccccc1` [Compound 59, (E)-1-(3,4-dihydroxyphenyl)-5-phenylpent-1-en-3-one], the IC50 on 5-lipoxygenase [1] worked out at 840 nM.
